Measured values taken from US8389523B2, “Substituted quinoxaline and an agrochemical composition thereof” (Kumiai Chemical Industry Co., Ltd., priority 2007, dated 2013).

Experiments:
Type in all cases: in vivo
Design in all cases: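 grade 0 to 5 of growth suppression where 5 is 90% or more and 0 below 10%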
[1] = test system: Abutilon theophrasti medicus; assay: Herbicidal effects in upland field soil treatment (Test Example 2); details: 1000 g active ingredient per hectare, 21st day after treatment, criteria of Table 138
In short: (§1)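 Soil-applied before emergence at 1000 g a.i./ha as water-diluted wettable powder; greenhouse-grown plants rated for herbicidal damage 21 days post-treatment.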

Amaranthus viridis L. [2] = assay: as above; details: 1000 g active ingredient per hectare, 21st day after treatment, criteria of Table 138
In short: as §1

[3] = test system: Abutilon theophrasti medicus; assay: Herbicidal effects in upland field foliar treatment (Test Example 3); details: 1000 g of the active ingredient per hectare, 14th day after the treatment, wettable powder, criteria of Table 138
In short: (§2)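 Post-emergence foliar treatment: two-week-old seedlings from upland field soil received 1000 g a.i./ha (wettable powder, 1000 L water/ha), then returned to the greenhouse for scoring 14 days later.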

Amaranthus viridis L. [4] = assay: as above; details: 1000 g of the active ingredient per hectare, 14th day after the treatment, wettable powder, criteria of Table 138
In short: as §2

[5] = test system: Echinochloa crus-galli (L.) P. Beauv. var. crus-galli; assay: as above; details: 1000 g of the active ingredient per hectare, 14th day after the treatment, wettable powder, criteria of Table 138
In short: as §2

[6] = test system: Echinochloa oryzicola Vasing; assay: Herbicidal effects in paddy field soil treatment (Test Example 1); details: paddy field soil treatment; 1000 g of the active ingredient per hectare; wettable powder added dropwise on water surface; 21st day after treatment
In short: (§3)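 Flooded-paddy soil treatment under greenhouse conditions: a diluted wettable powder at 1000 g a.i./ha went onto the water surface one day post-sowing, with 3 cm standing water, and weed control was graded on a scoring scale 21 days after treatment.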

[7] = test system: Monochoria vaginalis (Burm. f.) Presl var. plantaginea (Roxb.) Solms-Laub.; assay: as above; details: paddy field soil treatment; 1000 g of the active ingredient per hectare; wettable powder added dropwise on water surface; 21st day after treatment
In short: as §3

[8] = test system: Scirpus juncoides Roxb. var. ohwianus. T. Koyama; assay: as above; details: paddy field soil treatment; 1000 g of the active ingredient per hectare; wettable powder added dropwise on water surface; 21st day after treatment
In short: as §3

COc1ccc2nc(C(=O)C3=C(O)CCCC3=O)c(=O)n(-c3cc(F)c(OC)cc3F)c2c1 [II-254]
herbicidal effect (index) on Abutilon theophrasti medicus [1]: 4
herbicidal effect (index) on Amaranthus viridis L. (Amaranthus viridis L. [2]): 5
herbicidal effects on Abutilon theophrasti medicus [3]: 4
herbicidal effects on Amaranthus viridis L. (Amaranthus viridis L. [4]): 5
herbicidal effects on Echinochloa crus-galli (L.) P. Beauv. var. crus-galli [5]: 5
Herbicidal effects index, Echinochloa oryzicola Vasing [6]: 5
Herbicidal effects index, Monochoria vaginalis (Burm. f.) Presl var. plantaginea (Roxb.) Solms-Laub. [7]: 5
Herbicidal effects index, Scirpus juncoides Roxb. var. ohwianus. T. Koyama [8]: 5

O=C1CCCC(O)=C1C(=O)c1nc2cc(F)c(F)cc2n(-c2ccccc2)c1=O [II-260]
herbicidal effect (index) on Abutilon theophrasti medicus [1]: 5
herbicidal effect (index) on Amaranthus viridis L. (Amaranthus viridis L. [2]): 5
herbicidal effects on Abutilon theophrasti medicus [3]: 5
herbicidal effects on Amaranthus viridis L. (Amaranthus viridis L. [4]): 5
herbicidal effects on Echinochloa crus-galli (L.) P. Beauv. var. crus-galli [5]: 5
Herbicidal effects index, Echinochloa oryzicola Vasing [6]: 5
Herbicidal effects index, Monochoria vaginalis (Burm. f.) Presl var. plantaginea (Roxb.) Solms-Laub. [7]: 5
Herbicidal effects index, Scirpus juncoides Roxb. var. ohwianus. T. Koyama [8]: 5

O=C1CCCC(O)=C1C(=O)c1nc2cc(F)cc(F)c2n(-c2ccccc2)c1=O [II-261]
herbicidal effect (index) on Abutilon theophrasti medicus [1]: 4
herbicidal effect (index) on Amaranthus viridis L. (Amaranthus viridis L. [2]): 5
herbicidal effects on Abutilon theophrasti medicus [3]: 5
herbicidal effects on Amaranthus viridis L. (Amaranthus viridis L. [4]): 5
herbicidal effects on Echinochloa crus-galli (L.) P. Beauv. var. crus-galli [5]: 5
Herbicidal effects index, Echinochloa oryzicola Vasing [6]: 5
Herbicidal effects index, Monochoria vaginalis (Burm. f.) Presl var. plantaginea (Roxb.) Solms-Laub. [7]: 5
Herbicidal effects index, Scirpus juncoides Roxb. var. ohwianus. T. Koyama [8]: 5

COc1ccc(-n2c(=O)c(C(=O)C3=C(O)CCCC3=O)nc3cc(F)c(OC)cc32)cc1 [II-263]
herbicidal effect (index) on Abutilon theophrasti medicus [1]: 4
herbicidal effect (index) on Amaranthus viridis L. (Amaranthus viridis L. [2]): 5
herbicidal effects on Abutilon theophrasti medicus [3]: 4
herbicidal effects on Amaranthus viridis L. (Amaranthus viridis L. [4]): 5
herbicidal effects on Echinochloa crus-galli (L.) P. Beauv. var. crus-galli [5]: 5
Herbicidal effects index, Echinochloa oryzicola Vasing [6]: 5
Herbicidal effects index, Monochoria vaginalis (Burm. f.) Presl var. plantaginea (Roxb.) Solms-Laub. [7]: 5
Herbicidal effects index, Scirpus juncoides Roxb. var. ohwianus. T. Koyama [8]: 5

COc1ccc2nc(C(=O)C3=C(O)CCCC3=O)c(=O)n(-c3ccc(F)cc3)c2c1 [II-304]
herbicidal effect (index) on Abutilon theophrasti medicus [1]: 5
herbicidal effect (index) on Amaranthus viridis L. (Amaranthus viridis L. [2]): 5
herbicidal effects on Abutilon theophrasti medicus [3]: 5
herbicidal effects on Amaranthus viridis L. (Amaranthus viridis L. [4]): 5
herbicidal effects on Echinochloa crus-galli (L.) P. Beauv. var. crus-galli [5]: 4
Herbicidal effects index, Echinochloa oryzicola Vasing [6]: 5
Herbicidal effects index, Monochoria vaginalis (Burm. f.) Presl var. plantaginea (Roxb.) Solms-Laub. [7]: 5
Herbicidal effects index, Scirpus juncoides Roxb. var. ohwianus. T. Koyama [8]: 5

COc1ccc2nc(C(=O)C3=C(O)CCCC3=O)c(=O)n(-c3ccc(OC(F)F)cc3)c2c1 [II-305]
herbicidal effect (index) on Abutilon theophrasti medicus [1]: 5
herbicidal effect (index) on Amaranthus viridis L. (Amaranthus viridis L. [2]): 5
herbicidal effects on Abutilon theophrasti medicus [3]: 5
herbicidal effects on Amaranthus viridis L. (Amaranthus viridis L. [4]): 5
herbicidal effects on Echinochloa crus-galli (L.) P. Beauv. var. crus-galli [5]: 5
Herbicidal effects index, Echinochloa oryzicola Vasing [6]: 5
Herbicidal effects index, Monochoria vaginalis (Burm. f.) Presl var. plantaginea (Roxb.) Solms-Laub. [7]: 5
Herbicidal effects index, Scirpus juncoides Roxb. var. ohwianus. T. Koyama [8]: 5

Cn1c(=O)c(C(=O)C2=C(O)CCCC2=O)nc2cccnc21 [III-2]
herbicidal effect (index) on Abutilon theophrasti medicus [1]: 5
herbicidal effect (index) on Amaranthus viridis L. (Amaranthus viridis L. [2]): 5
herbicidal effects on Abutilon theophrasti medicus [3]: 5
herbicidal effects on Amaranthus viridis L. (Amaranthus viridis L. [4]): 5
herbicidal effects on Echinochloa crus-galli (L.) P. Beauv. var. crus-galli [5]: 5
Herbicidal effects index, Echinochloa oryzicola Vasing [6]: 5
Herbicidal effects index, Monochoria vaginalis (Burm. f.) Presl var. plantaginea (Roxb.) Solms-Laub. [7]: 5
Herbicidal effects index, Scirpus juncoides Roxb. var. ohwianus. T. Koyama [8]: 5

Cn1c(=O)c(C(=O)C2=C(O)C3CCC(C3)C2=O)nc2cccnc21 (stereo not drawn) [III-5]
herbicidal effect (index) on Abutilon theophrasti medicus [1]: 5
herbicidal effect (index) on Amaranthus viridis L. (Amaranthus viridis L. [2]): 4
herbicidal effects on Abutilon theophrasti medicus [3]: 5
herbicidal effects on Amaranthus viridis L. (Amaranthus viridis L. [4]): 5
herbicidal effects on Echinochloa crus-galli (L.) P. Beauv. var. crus-galli [5]: 5
Herbicidal effects index, Echinochloa oryzicola Vasing [6]: 5
Herbicidal effects index, Monochoria vaginalis (Burm. f.) Presl var. plantaginea (Roxb.) Solms-Laub. [7]: 5
Herbicidal effects index, Scirpus juncoides Roxb. var. ohwianus. T. Koyama [8]: 5

CCn1c(=O)c(C(=O)C2=C(O)CCCC2=O)nc2cccnc21 [III-7]
herbicidal effect (index) on Abutilon theophrasti medicus [1]: 5
herbicidal effect (index) on Amaranthus viridis L. (Amaranthus viridis L. [2]): 5
herbicidal effects on Abutilon theophrasti medicus [3]: 5
herbicidal effects on Amaranthus viridis L. (Amaranthus viridis L. [4]): 5
herbicidal effects on Echinochloa crus-galli (L.) P. Beauv. var. crus-galli [5]: 4
Herbicidal effects index, Echinochloa oryzicola Vasing [6]: 5
Herbicidal effects index, Monochoria vaginalis (Burm. f.) Presl var. plantaginea (Roxb.) Solms-Laub. [7]: 5
Herbicidal effects index, Scirpus juncoides Roxb. var. ohwianus. T. Koyama [8]: 5

CCCn1c(=O)c(C(=O)C2=C(O)CCCC2=O)nc2cccnc21 [III-12]
herbicidal effect (index) on Abutilon theophrasti medicus [1]: 4
herbicidal effect (index) on Amaranthus viridis L. (Amaranthus viridis L. [2]): 5
herbicidal effects on Abutilon theophrasti medicus [3]: 5
herbicidal effects on Amaranthus viridis L. (Amaranthus viridis L. [4]): 5
herbicidal effects on Echinochloa crus-galli (L.) P. Beauv. var. crus-galli [5]: 4
Herbicidal effects index, Echinochloa oryzicola Vasing [6]: 5
Herbicidal effects index, Monochoria vaginalis (Burm. f.) Presl var. plantaginea (Roxb.) Solms-Laub. [7]: 5
Herbicidal effects index, Scirpus juncoides Roxb. var. ohwianus. T. Koyama [8]: 5

CC(C)n1c(=O)c(C(=O)C2=C(O)CCCC2=O)nc2cccnc21 [III-13]
herbicidal effect (index) on Abutilon theophrasti medicus [1]: 5
herbicidal effect (index) on Amaranthus viridis L. (Amaranthus viridis L. [2]): 5
herbicidal effects on Abutilon theophrasti medicus [3]: 5
herbicidal effects on Amaranthus viridis L. (Amaranthus viridis L. [4]): 5
herbicidal effects on Echinochloa crus-galli (L.) P. Beauv. var. crus-galli [5]: 4
Herbicidal effects index, Echinochloa oryzicola Vasing [6]: 5
Herbicidal effects index, Monochoria vaginalis (Burm. f.) Presl var. plantaginea (Roxb.) Solms-Laub. [7]: 5
Herbicidal effects index, Scirpus juncoides Roxb. var. ohwianus. T. Koyama [8]: 5

CCCCn1c(=O)c(C(=O)C2=C(O)CCCC2=O)nc2cccnc21 [III-15]
herbicidal effect (index) on Abutilon theophrasti medicus [1]: 5
herbicidal effect (index) on Amaranthus viridis L. (Amaranthus viridis L. [2]): 5
herbicidal effects on Abutilon theophrasti medicus [3]: 5
herbicidal effects on Amaranthus viridis L. (Amaranthus viridis L. [4]): 5
herbicidal effects on Echinochloa crus-galli (L.) P. Beauv. var. crus-galli [5]: 5
Herbicidal effects index, Echinochloa oryzicola Vasing [6]: 5
Herbicidal effects index, Monochoria vaginalis (Burm. f.) Presl var. plantaginea (Roxb.) Solms-Laub. [7]: 5
Herbicidal effects index, Scirpus juncoides Roxb. var. ohwianus. T. Koyama [8]: 5

C=CCn1c(=O)c(C(=O)C2=C(O)CCCC2=O)nc2cccnc21 [III-30]
herbicidal effect (index) on Abutilon theophrasti medicus [1]: 5
herbicidal effect (index) on Amaranthus viridis L. (Amaranthus viridis L. [2]): 5
herbicidal effects on Abutilon theophrasti medicus [3]: 5
herbicidal effects on Amaranthus viridis L. (Amaranthus viridis L. [4]): 5
herbicidal effects on Echinochloa crus-galli (L.) P. Beauv. var. crus-galli [5]: 4
Herbicidal effects index, Echinochloa oryzicola Vasing [6]: 4
Herbicidal effects index, Monochoria vaginalis (Burm. f.) Presl var. plantaginea (Roxb.) Solms-Laub. [7]: 5
Herbicidal effects index, Scirpus juncoides Roxb. var. ohwianus. T. Koyama [8]: 5

C#CCn1c(=O)c(C(=O)C2=C(O)CCCC2=O)nc2cccnc21 [III-35]
herbicidal effect (index) on Abutilon theophrasti medicus [1]: 5
herbicidal effect (index) on Amaranthus viridis L. (Amaranthus viridis L. [2]): 5
herbicidal effects on Abutilon theophrasti medicus [3]: 5
herbicidal effects on Amaranthus viridis L. (Amaranthus viridis L. [4]): 5
herbicidal effects on Echinochloa crus-galli (L.) P. Beauv. var. crus-galli [5]: 4
Herbicidal effects index, Echinochloa oryzicola Vasing [6]: 4
Herbicidal effects index, Monochoria vaginalis (Burm. f.) Presl var. plantaginea (Roxb.) Solms-Laub. [7]: 5
Herbicidal effects index, Scirpus juncoides Roxb. var. ohwianus. T. Koyama [8]: 5

O=C1CCCC(O)=C1C(=O)c1nc2cccnc2n(CC(F)(F)F)c1=O [III-40]
herbicidal effect (index) on Abutilon theophrasti medicus [1]: 5
herbicidal effect (index) on Amaranthus viridis L. (Amaranthus viridis L. [2]): 5
herbicidal effects on Abutilon theophrasti medicus [3]: 5
herbicidal effects on Amaranthus viridis L. (Amaranthus viridis L. [4]): 5
herbicidal effects on Echinochloa crus-galli (L.) P. Beauv. var. crus-galli [5]: 4
Herbicidal effects index, Echinochloa oryzicola Vasing [6]: 5
Herbicidal effects index, Monochoria vaginalis (Burm. f.) Presl var. plantaginea (Roxb.) Solms-Laub. [7]: 5
Herbicidal effects index, Scirpus juncoides Roxb. var. ohwianus. T. Koyama [8]: 5

O=C1CCCC(O)=C1C(=O)c1nc2cccnc2n(CCF)c1=O [III-45]
herbicidal effect (index) on Abutilon theophrasti medicus [1]: 4
herbicidal effect (index) on Amaranthus viridis L. (Amaranthus viridis L. [2]): 5
herbicidal effects on Abutilon theophrasti medicus [3]: 5
herbicidal effects on Amaranthus viridis L. (Amaranthus viridis L. [4]): 5
herbicidal effects on Echinochloa crus-galli (L.) P. Beauv. var. crus-galli [5]: 5
Herbicidal effects index, Echinochloa oryzicola Vasing [6]: 4
Herbicidal effects index, Monochoria vaginalis (Burm. f.) Presl var. plantaginea (Roxb.) Solms-Laub. [7]: 5
Herbicidal effects index, Scirpus juncoides Roxb. var. ohwianus. T. Koyama [8]: 5

O=C1CCCC(O)=C1C(=O)c1nc2cccnc2n(COCC(F)(F)F)c1=O [III-59]
herbicidal effect (index) on Abutilon theophrasti medicus [1]: 5
herbicidal effect (index) on Amaranthus viridis L. (Amaranthus viridis L. [2]): 5
herbicidal effects on Abutilon theophrasti medicus [3]: 5
herbicidal effects on Amaranthus viridis L. (Amaranthus viridis L. [4]): 5
herbicidal effects on Echinochloa crus-galli (L.) P. Beauv. var. crus-galli [5]: 5
Herbicidal effects index, Echinochloa oryzicola Vasing [6]: 5
Herbicidal effects index, Monochoria vaginalis (Burm. f.) Presl var. plantaginea (Roxb.) Solms-Laub. [7]: 5
Herbicidal effects index, Scirpus juncoides Roxb. var. ohwianus. T. Koyama [8]: 5

COCCn1c(=O)c(C(=O)C2=C(O)CCCC2=O)nc2cccnc21 [III-88]
herbicidal effect (index) on Abutilon theophrasti medicus [1]: 5
herbicidal effect (index) on Amaranthus viridis L. (Amaranthus viridis L. [2]): 5
herbicidal effects on Abutilon theophrasti medicus [3]: 5
herbicidal effects on Amaranthus viridis L. (Amaranthus viridis L. [4]): 5
herbicidal effects on Echinochloa crus-galli (L.) P. Beauv. var. crus-galli [5]: 5
Herbicidal effects index, Echinochloa oryzicola Vasing [6]: 5
Herbicidal effects index, Monochoria vaginalis (Burm. f.) Presl var. plantaginea (Roxb.) Solms-Laub. [7]: 5
Herbicidal effects index, Scirpus juncoides Roxb. var. ohwianus. T. Koyama [8]: 4
